The data set has as its system rodent carcinogenicity bioassays, tumor incidence. The experiment in a line: CCRIS carcinogenicity studies. The method in brief:
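NCI-built, expert-reviewed records of carcinogenicity and related test outcomes (mutagenicity, tumor promotion/inhibition) compiled from published and report sources, historical span 1985-2011, not updated.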

Activity calls are given as the source filed them. No rule for the calls is given here.

`c1ccc2c(c1)cc1ccc3cccc4ccc2c1c34`: the carcinogen call is “active; positive” (Species: MOUSE, Strain/Sex: SWISS/FEMALE, Route: DERMAL, Dose: 0, 2.2, 6.6, 20 NMOL IN 50 µL ACETONE 2/WK FOR 48 WK (STUDY DURATION: 61 WK), Dose: 0, 2.2, 6.6, 20 NMOL IN 50 µL ACETONE 2/WK FOR 48 WK (STUDY DURATION: 61 WK), Tumor Site: Type of Lesion: SKIN: PAPILLOMA, SKIN: SQUAMOUS CELL CARCINOMA); “active; positive” (Species: MOUSE, Strain/Sex: SWISS/FEMALE, Route: DERMAL, Dose: 0, 22.2, 66.6, 200 NMOL IN 50 µL ACETONE 2/WK FOR 48 WK (STUDY DURATION: 61 WK), Dose: 0, 22.2, 66.6, 200 NMOL IN 50 µL ACETONE 2/WK FOR 48 WK (STUDY DURATION: 61 WK), Tumor Site: Type of Lesion: SKIN: SQUAMOUS CELL CARCINOMA); “active; positive” (Species: MOUSE, Strain/Sex: SWISS/FEMALE, Route: DERMAL, Dose: 0.01-0.5%, 3/WK, Tumor Site: Type of Lesion: INTEGUMENTARY SYSTEM (SKIN): CARCINOMA, PAPILLOMA); “active; positive” (Species: MOUSE, Strain/Sex: SWISS/FEMALE, Route: DERMAL, Dose: 0.1-9 UG, 3/WK FOR < 700 D, Tumor Site: Type of Lesion: INTEGUMENTARY SYSTEM (SKIN)); “active; positive” (Species: MOUSE, Strain/Sex: WILDTYPE/MALE, Route: GAVAGE, Dose: 0, 13, 39 MG/KG BW IN 0.1 ML SOY OIL 3/WK FOR 13 WK (STUDY DURATION: 291 D), Dose: 0, 13, 39 MG/KG BW IN 0.1 ML SOY OIL 3/WK FOR 13 WK (STUDY DURATION: 291 D), Tumor Site: Type of Lesion: LYMPHATIC SYSTEM: LYMPHOMA, FORESTOMACH: TUMOR); “inactive; negative” (Species: Mouse, Strain/Sex: 129 x MF1 Gstp-null (14-15 males and females), Route: Intraperitoneal, Dose: 200 mg/kg, once, study duration 5 mo, Tumor Site: Type of Lesion: Lung: adenoma (incidence 71% vs 27% in controls, multiplicity 3.0 vs 0.3 in controls)). Besides, the carcinogen call runs as follows: (Species: Mouse, Strain/Sex: 129 x MF1 wild type (14-16 males and females), Route: Intraperitoneal, Dose: 200 mg/kg, once, study duration 5 mo, Tumor Site: Type of Lesion: Lung: adenoma (incidence 29% vs 25% in controls, multiplicity 0.4 vs 0.3 in controls)) “inactive; negative”; (Species: RABBIT, Route: DERMAL, Dose: 0.001-0.5%, 5/WK, Tumor Site: Type of Lesion: INTEGUMENTARY SYSTEM (SKIN)) “active; positive”; (Species: RABBIT, Route: DERMAL, Tumor Site: Type of Lesion: INTEGUMENTARY SYSTEM (SKIN): PAPILLOMA, CARCINOMA) “active; positive”; (Species: RAT, Route: INTRATRACHEAL, Dose: 0.0005-2.5 MG, 1/MO FOR 10 MO, OBSERVED 2 YR, Tumor Site: Type of Lesion: LUNG) “active; positive”; (Species: RAT, Route: SUBCUTANEOUS, Dose: 0.05, 0.1, 0.5, 1.0 MG, SINGLE DOSE, Tumor Site: Type of Lesion: INJECTION SITE) “active; positive”; (Species: RAT, Route: SUBCUTANEOUS, Tumor Site: Type of Lesion: INJECTION SITE) “active; positive”. Further, the carcinogen call (Species: RAT, Strain/Sex: F344/MALE, Route: LUNG IMPLANT, Dose: 0, 50, 100, 200 UG IN BEESWAX/TRICAPRYLIN INTO LEFT LUNG ONCE (STUDY DURATION: 100 WK), Dose: 0, 50, 100, 200 UG IN BEESWAX/TRICAPRYLIN INTO LEFT LUNG ONCE (STUDY DURATION: 100 WK), Tumor Site: Type of Lesion: LUNG: SQUAMOUS CELL CARCINOMA) was “active; positive”; the carcinogen call (Species: RAT, Strain/Sex: F344/MALE, Route: PULMONARY IMPLANT, Dose: 0, 50, 100, 200 UG IN 50 µL BEESWAX/TRICAPRYLIN IMPLANTED FOR UP TO 100 WK (STUDY DURATION: 100 WK), Dose: 0, 50, 100, 200 UG IN 50 µL BEESWAX/TRICAPRYLIN IMPLANTED FOR UP TO 100 WK (STUDY DURATION: 100 WK), Tumor Site: Type of Lesion: LUNG: TUMOR) was “active; positive”; the carcinogen call (Species: RAT, Strain/Sex: F344/MALE, Route: SUBCUTANEOUS IMPLANT, Dose: 0, 8, 40, 200, 1000 UG IN 50 µL BEESWAX/TRICAPRYLIN IMPLANTED FOR UP TO 45 WK (STUDY DURATION: 45 WK), Dose: 0, 8, 40, 200, 1000 UG IN 50 µL BEESWAX/TRICAPRYLIN IMPLANTED FOR UP TO 45 WK (STUDY DURATION: 45 WK), Tumor Site: Type of Lesion: IMPLANT SITE: TUMOR) is “active; positive”; the carcinogen call (Species: RAT, Strain/Sex: OSBORNE-MENDEL/FEMALE, Route: INTRAPULMONARY IMPLANT, Dose: 0, 0.03, 0.1, 0.3 MG IN BEESWAX AND TRIOCTANOIN IMPLANTED IN LUNG (STUDY DURATION: 141 WK), Dose: 0, 0.03, 0.1, 0.3 MG IN BEESWAX AND TRIOCTANOIN IMPLANTED IN LUNG (STUDY DURATION: 141 WK), Tumor Site: Type of Lesion: LUNG: CARCINOMA) is “active; positive”; the carcinogen call (Species: RAT, Strain/Sex: OSBORNE-MENDEL/FEMALE, Route: LUNG IMPLANT, Dose: 0, 0.1, 0.3, 1.0 MG IN BEESWAX/TRIOCTANOIN (STUDY DURATION: LIFETIME), Dose: 0, 0.1, 0.3, 1.0 MG IN BEESWAX/TRIOCTANOIN (STUDY DURATION: LIFETIME), Tumor Site: Type of Lesion: LUNG: EPIDERMOID CARCINOMA, PLEOMORPHIC SARCOMA) was “active; positive”; the carcinogen call (Species: RAT, Strain/Sex: SPRAGUE-DAWLEY/FEMALE, Route: INJECTION, Dose: 0, 0.25, 1 UMOL PER MAMMARY GLAND (STUDY DURATION: 24 WK), Dose: 0, 0.25, 1 UMOL PER MAMMARY GLAND (STUDY DURATION: 24 WK), Tumor Site: Type of Lesion: MAMMARY GLAND: TUMOR) was “active; positive”. Also, the carcinogen call was “active; positive” (Species: RAT, Strain/Sex: SPRAGUE-DAWLEY/FEMALE, Route: INTRAVENOUS, Dose: 39 MG/KG, SINGLE DOSE, Tumor Site: Type of Lesion: MAMMARY GLAND: CARCINOMA); “active; positive” (Species: RAT, Strain/Sex: SPRAGUE-DAWLEY/FEMALE, Route: INTRAVENOUS, Tumor Site: Type of Lesion: MAMMARY GLAND: CARCINOMA); “active; positive” (Species: RAT, Strain/Sex: STRAIN-CD/FEMALE, Route: GAVAGE, Dose: 0, 50 UMOL IN 0.5 ML TRIOCTANOIN 1/WK FOR 8 WK (STUDY DURATION: 49 WK), Tumor Site: Type of Lesion: MAMMARY GLAND: FIBROADENOMA, DESMOPLASTIC ADENOMA, ADENOCARCINOMA).

(Values after PubChem BioAssay AID1259411 (Chemical Carcinogenesis Research Information System (CCRIS), 2018).)
